The results in this text go back to US6489137B2, “Detection of loss of the wild-type huBUB1 gene” (Chiron Corporation, priority 1997, dated 2002).

SMILES strings stand for the structures.

This experiment addresses T1, huBUB1 kinase (Homo sapiens, UniProt O43683).
T1 construct: Plasmid p385-1, encoding full-length huBUB1 in the vector pCR3.1 (Invitrogen), was employed as a backbone for further constructs; made in house; host or cells: cell-free coupled in vitro transcription/translation (T7 TnT kit, Promega) from pCR3.1 plasmids, anti-FLAG immunopurified
Kind of experiment: in vitro huBUB1 kinase (autophosphorylation) assay. In kind it is biochemical. The conditions noted are these: for relative huBUB1 autophosphorylation: immunopurified FLAG-BUB3/BUB1, labeled-ATP kinase reaction, SDS-PAGE, phosphorimager; for inhibition of huBUB1 kinase (result in words): tested at 5, 10 and 20 μM. From the text: A set of known compounds was screened using an in vitro huBUB1 kinase assay. Tested compounds included olomucine, myrecetin, hypericin, iodotubercidin, ellagic acid, emodin, and staurosporine. The relative specificity of these compounds towards known kinases has been reported in the literature. Some of these compounds can be classified as relatively specific kinase inhibitors (e.g., olomucine, myrecetin, ellagic acid), while other inhibitors are known to inhibit a broad range of kinase (e.g., hypericin, iodotubercidin, staurosporine).
Unlabeled FLAG-BUB3/BUB1 in vitro translation products were immunopurified with anti-FLAG. […] kinase reactions were performed in the presence and absence of inhibitors in 20 μl reaction volumes. Labeled reaction products were separated on SDS-PAGE gels, and relative huBUB1 autophosphorylation was determined with the aid of a phosphorimager. An initial screen was conducted using 10 and 20 μM of each compound. Compounds with a positive result in this screen were then retested at 5, 10 and 20 μM (Table 1).

T1 sequence (O43683 whole entry): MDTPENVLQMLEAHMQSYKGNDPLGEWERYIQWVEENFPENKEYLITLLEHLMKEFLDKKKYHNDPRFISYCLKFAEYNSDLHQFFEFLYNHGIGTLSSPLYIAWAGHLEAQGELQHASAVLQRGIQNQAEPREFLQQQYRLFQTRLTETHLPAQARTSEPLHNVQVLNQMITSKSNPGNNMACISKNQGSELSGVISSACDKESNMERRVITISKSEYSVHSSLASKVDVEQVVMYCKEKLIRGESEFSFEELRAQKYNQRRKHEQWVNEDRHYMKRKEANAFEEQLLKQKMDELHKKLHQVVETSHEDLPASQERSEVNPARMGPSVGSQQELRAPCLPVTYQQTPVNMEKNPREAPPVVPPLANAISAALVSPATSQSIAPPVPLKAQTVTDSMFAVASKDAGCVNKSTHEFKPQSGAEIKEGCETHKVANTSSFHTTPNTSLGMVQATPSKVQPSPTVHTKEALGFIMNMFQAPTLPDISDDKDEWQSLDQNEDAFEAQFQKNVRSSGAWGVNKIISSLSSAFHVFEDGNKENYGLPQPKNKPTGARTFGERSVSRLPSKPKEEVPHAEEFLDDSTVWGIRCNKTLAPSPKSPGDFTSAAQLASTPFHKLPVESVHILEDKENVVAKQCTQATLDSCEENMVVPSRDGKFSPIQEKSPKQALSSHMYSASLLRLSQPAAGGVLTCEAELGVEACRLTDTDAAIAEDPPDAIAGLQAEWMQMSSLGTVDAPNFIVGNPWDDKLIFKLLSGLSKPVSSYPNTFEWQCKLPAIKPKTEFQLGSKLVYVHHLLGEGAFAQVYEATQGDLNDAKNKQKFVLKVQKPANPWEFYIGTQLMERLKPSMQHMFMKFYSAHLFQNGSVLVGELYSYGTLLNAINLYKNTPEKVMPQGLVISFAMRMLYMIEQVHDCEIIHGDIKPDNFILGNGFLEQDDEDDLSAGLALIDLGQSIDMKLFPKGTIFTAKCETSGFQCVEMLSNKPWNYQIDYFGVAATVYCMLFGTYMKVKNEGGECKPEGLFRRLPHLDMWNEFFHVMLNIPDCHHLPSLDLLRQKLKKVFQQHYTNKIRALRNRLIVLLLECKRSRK
T1 sequence (O43684 whole entry partner): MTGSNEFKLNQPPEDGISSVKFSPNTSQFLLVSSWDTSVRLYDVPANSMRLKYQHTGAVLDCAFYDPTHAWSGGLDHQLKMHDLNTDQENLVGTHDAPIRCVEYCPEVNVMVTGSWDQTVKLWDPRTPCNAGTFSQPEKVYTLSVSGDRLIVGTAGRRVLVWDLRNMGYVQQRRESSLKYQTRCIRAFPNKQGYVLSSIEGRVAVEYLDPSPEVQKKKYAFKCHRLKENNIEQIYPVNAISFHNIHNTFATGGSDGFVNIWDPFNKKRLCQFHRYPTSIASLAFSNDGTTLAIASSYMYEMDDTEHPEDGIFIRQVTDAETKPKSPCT

For the compound `Nc1ncnc2c1c(I)cn2[C@@H]1O[C@H](CO)[C@@H](O)[C@H]1O` [iodotubercidin], the “inhibition of huBUB1 kinase (result in words)” value is on record as “clearly inhibited”. For the same compound, the “relative huBUB1 autophosphorylation” value (5 μM compound) is 0.56 +/− 0.08. For the same compound, for the setting “10 μM compound”, the “relative huBUB1 autophosphorylation” value is reported as 0.41 +/− 0.09. Where the note is “20 μM compound”, the “relative huBUB1 autophosphorylation” value is 0.32 +/− 0.05.

Take `CN[C@@H]1C[C@H]2O[C@@](C)([C@@H]1OC)n1c3ccccc3c3c4c(c5c6ccccc6n2c5c31)C(=O)NC4` [staurosporine]: the “inhibition of huBUB1 kinase (result in words)” value is listed as “clearly inhibited”. The “relative huBUB1 autophosphorylation” value (5 μM compound) is given as 0.45 +/− 0.11. Moreover, the “relative huBUB1 autophosphorylation” value (10 μM compound) is listed as 0.49 +/− 0.11. Also, for the setting “20 μM compound”, the “relative huBUB1 autophosphorylation” value is 0.26 +/− 0.04.

Consider `Cc1cc(O)c2c(=O)c3c(O)cc(O)c4c5c(O)cc(O)c6c(=O)c7c(O)cc(C)c8c1c2c(c34)c(c78)c65` [hypericin], for which the “relative huBUB1 autophosphorylation” value reads like this: (5 μM compound) 0.63 +/− 0.07; (10 μM compound) 0.47 +/− 0.13; (20 μM compound) 0.36 +/− 0.05.
